What all share (format): cell-based
Assay [1] relates to human islets. Briefly: Acute insulin secretion assay with human islets from a lean non-diabetic donor. The note with it: 2 mM and 20 mM glucose, 15-deoxy-Δ12,14-PGJ2-2-G at 250 μM. The protocol: Insulin secretion assay was performed in low glucose (2 mM) and high glucose (20 mM) conditions with human islets from a lean non-diabetic donor. […] Both bioactive lipids improved glucose stimulated insulin release acutely. The results are expressed as ng secreted insulin per 10 islets.

The test system of a further assay is human H716 cells. Briefly: GLP-1 secretion assay in human H716 cells. The note with it: 0.23 nM to 2.3 nM. The protocol: GLP-1 secretion assay was performed using human H716 cells in the presence of various concentration of the bioactive lipid from 0.23 nM to 2.3 nM.
The subject of assay [2] is human islets. Briefly: Beta cell function and incretin response in human islets from donors. The note with it: lean type 2 diabetic and non-diabetic obese donors, 50 μM, 72 hours. The protocol:
Glucose stimulated insulin release was measured in low glucose (2 mM), high glucose (20 mM) and high glucose (20 mM)+0.1 uM Exendin4

The next assay deals with mouse islets. Briefly: GSIS in mouse islets after 72 hours treatment. The note with it: 72 hours at 50 μM, 2 mM and 20 mM glucose. The protocol: (§1) After PGD2G treatment, glucose stimulated insulin release was measured in low glucose (2 mM) and high glucose (20 mM) conditions in KRB solution. The insulin release is expressed as released from the total content of insulin in Ins1E cells and mouse islets.

A short description of assay [3]: Acute glucose stimulated insulin release normalized to total protein content. The conditions noted are these: 2 mM and 20 mM glucose, 470 μM, 2.3 nM, 230 nM bioactive lipid. The protocol: Glucose stimulated insulin release was measured in low glucose (2 mM) and high glucose (20 mM) in the presence of various concentrations (470 μM, 2.3 nM, 230 nM) of the bioactive lipid. The bioactive lipid improved glucose stimulated insulin release particularly at concentrations from 2.5 nM to 250 nM. The result are presented as insulin release normalized to total protein content.

The subject of assay [4] is human islets. Briefly: Glucose stimulated insulin release in human islets after cytokine-induced dysfunction. The note with it: human islets of three donors, 50 μM 72 hours, cytokine mix last 48 hours. The protocol: During the last 48 hours, the cytokine mix was added (IL1beta 10 ng/ml, TNF alpha 25 ng/ml and INFgamma 10 ng/ml). Glucose stimulated insulin release was measured in low glucose (2 mM) and high glucose (20 mM) conditions. The bioactive lipid was able to improve glucose stimulated insulin release after cytokine-induced dysfunction.

A further assay relates to Ins1E cells. Briefly: GSIS in Ins1E cells after 72 hours treatment. The note with it: 72 hours at 50 μM, 2 mM and 20 mM glucose. The protocol: as §1

In the case of `CCCCC/C=C/C=C1/C(=O)C=C[C@@H]1C/C=C\CCCC(=O)OC(CO)CO` [15-deoxy-Δ12,14-PGJ2-2-G, 11-oxo-5Z,9,12E,4E-prostatetraenoic acid-2-glycerol ester], in the assay with human islets [1], the “insulin secretion (ng secreted insulin per 10 islets)” value was “increased insulin secretion both with and without the presence of a white adipose tissue (WAT) fraction”.

As to `CCCCC[C@H](O)/C=C/[C@H]1C(=O)C[C@H](O)[C@@H]1C/C=C\CCCC(=O)OCC(O)CO` (stereo partly drawn) [PGD2G, 9a, 15S-dihydroxy-11-oxo-5Z,13E-prostadienoic acid 1-glyceryl ester], the “insulin secretion (ng secreted insulin per 10 islets)” value in the assay with human islets [1] is recorded as “also increased insulin secretion compared to control tissues”. Also, the “GLP1 release normalized to total protein content” value in the assay with human H716 cells is reported as “increased GLP1 secretion”. In addition, in the assay with human islets [2], the “beta cell function (glucose stimulated insulin release)” value is “improved beta cell function” and the “incretin response (20 mM glucose + 0.1 uM Exendin4)” value was “improved”. Also, the “glucose stimulated insulin release (of total insulin content)” value in the assay with mouse islets is given as “increased insulin secretion”. Also, in assay [3], the “insulin release normalized to total protein content” value is “acutely stimulated insulin secretion upon stimulation with glucose”. The “glucose stimulated insulin release after cytokine-induced dysfunction” value with human islets [4] is “protected human islets against cytokine induced dysfunction”. The “glucose stimulated insulin release (of total insulin content)” value in the assay on Ins1E cells is “increased insulin secretion”.

Values taken from patent US20190151277A1, “USES OF BIOACTIVE LIPIDS” (NESTEC S.A., priority 2014, published 2019).
